Measurements: patent US9096639B2, “17-hydroxy-17-pentafluorethyl-estra-4,9(10)-dien-11-acyloxyalkylene phenyl derivatives, methods for the production thereof and use thereof for treating diseases” (Bayer Intellectual Property GmbH, priority 2009, dated 2015)

Biological target: T1, human progesterone receptor B (Homo sapiens, UniProt P06401)
T1 construct: expressed in transfected cells; host or cells: SK-N-MC human neuroblastoma cells, stably transfected with pRChPR-B-neo and pMMTV-LUC
T1 sequence (P06401 1-933): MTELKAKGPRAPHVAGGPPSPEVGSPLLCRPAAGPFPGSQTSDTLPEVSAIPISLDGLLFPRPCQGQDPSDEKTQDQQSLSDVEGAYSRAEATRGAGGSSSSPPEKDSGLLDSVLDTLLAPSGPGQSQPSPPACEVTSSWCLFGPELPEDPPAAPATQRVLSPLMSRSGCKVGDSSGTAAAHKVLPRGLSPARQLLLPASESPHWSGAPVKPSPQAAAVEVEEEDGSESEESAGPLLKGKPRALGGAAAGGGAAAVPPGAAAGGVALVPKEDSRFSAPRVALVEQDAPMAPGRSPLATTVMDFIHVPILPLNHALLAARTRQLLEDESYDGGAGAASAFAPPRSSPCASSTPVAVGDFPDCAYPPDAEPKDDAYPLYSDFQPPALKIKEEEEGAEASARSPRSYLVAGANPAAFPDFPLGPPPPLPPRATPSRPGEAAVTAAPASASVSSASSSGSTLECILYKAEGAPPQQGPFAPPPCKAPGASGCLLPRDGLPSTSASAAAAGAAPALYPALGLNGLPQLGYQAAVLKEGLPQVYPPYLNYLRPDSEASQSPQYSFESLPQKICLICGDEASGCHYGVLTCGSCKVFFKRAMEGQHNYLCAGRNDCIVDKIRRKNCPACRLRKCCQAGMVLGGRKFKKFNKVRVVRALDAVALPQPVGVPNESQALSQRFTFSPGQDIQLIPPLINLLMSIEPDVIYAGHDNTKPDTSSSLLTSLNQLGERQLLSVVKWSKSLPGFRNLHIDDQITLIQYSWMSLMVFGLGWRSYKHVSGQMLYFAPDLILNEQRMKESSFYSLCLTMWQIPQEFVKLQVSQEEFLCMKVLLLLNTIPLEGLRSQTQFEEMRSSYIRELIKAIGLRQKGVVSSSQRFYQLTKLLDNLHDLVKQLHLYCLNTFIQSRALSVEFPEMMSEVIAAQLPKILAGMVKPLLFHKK
Test: Progesterone receptor transactivation test in stably transfected SK-N-MC cells (PR-B, MMTV-LUC reporter)
Format: cell-based
Conditions: 0.1 nmol/l promegestone, 24 hours, read-out: PR-B IC50 (antagonistic potency)
Protocol: Progesterone receptor-antagonistic action in stable transfectants of human neuroblastoma cells (SK-N-MC cells) with the human progesterone A or progesterone B receptor and an MN-LUC reporter construct SK-N-MC cells (human neuroblastoma cells) which have been stably transfected with plasmids expressing the human progesterone receptor B (pRChPR-B-neo) or the human progesterone receptor A (pRChPR-A-neo) and a reporter construct (pMMTV-LUC) were incubated for 24 hours either in the absence (negative control) or in the presence of ascending amounts of the particular test compound (0.01 nmol/l, 0.1 nmol/l, 1 […], 100 nmol/l and […]), in order to determine the agonistic efficacy. As a positive control of the reporter gene induction, the cells were treated with the synthetic gestagen promegestone (0.01 nmol/l, 0.1 nmol/l, 1 nmol/l, 10 nmol/l, 100 nmol/l and […]). To determine the antagonistic activity, the cells were treated with 0.1 nmol/l promegestone and additionally with ascending amounts of the particular test compound (0.01 nmol/l, 0.1 nmol/l, 1 nmol/l, 10 nmol/l, 100 nmol/l and […]). The activity of the reporter gene LUC (LUC=luciferase) was determined in the cell lysates and measured as RLU (relative light units). All measurements are reported as % efficacy and as EC50 and IC50 concentrations.

Row | IC50 [nM] | Structure (SMILES)
1 | 0.1 | CC(C)C(=O)OC(C)c1ccc([C@H]2C[C@@]3(C)C(CC[C@@]3(O)C(F)(F)C(F)(F)F)C3CCC4=CC(=O)CCC4=C32)cc1 (mixture of isomers) [Example 2, Isobutyric acid (RS)-1-[4-((8S,11R,13S,14S,17S)-17-hydroxy-13-methyl-3-oxo-17-pentafluoroethyl-2,3,6,7,8,11,12,13,14,15,16,17-dodecahydro-1H-cyclopenta[a]-phenanthren-11-yl)phenyl]ethyl ester]
2 | 0.2 | CC(C)CC(=O)OC(C)c1ccc([C@H]2C[C@@]3(C)C(CC[C@@]3(O)C(F)(F)C(F)(F)F)C3CCC4=CC(=O)CCC4=C32)cc1 (mixture of isomers) [Example 3, 3-Methylbutyric acid (RS)-1-[4-((8S,11R,13S,14S,17S)-17-hydroxy-13-methyl-3-oxo-17-pentafluoroethyl-2,3,6,7,8,11,12,13,14,15,16,17-dodecahydro-1H-cyclopenta[a]phenanthren-11-yl)phenyl]ethyl ester]
3 | 0.08 | CC(=O)O[C@H](C)c1ccc([C@H]2C[C@@]3(C)C(CC[C@@]3(O)C(F)(F)C(F)(F)F)C3CCC4=CC(=O)CCC4=C32)cc1 (mixture of isomers) [Example 1, acetic acid (RS)-1-[4-((8S,11R,13S,14S,17S)-17-hydroxy-13-methyl-3-oxo-17-pentafluoroethyl-2,3,6,7,8,11,12,13,14,15,16,17-dodecahydro-1H-cyclopenta[a]phenanthren-11-yl)phenyl]ethyl ester]
4 | 0.4 | CC(OC(=O)CC(C)(C)C)c1ccc([C@H]2C[C@@]3(C)C(CC[C@@]3(O)C(F)(F)C(F)(F)F)C3CCC4=CC(=O)CCC4=C32)cc1 (mixture of isomers) [Example 4, 3,3-Dimethylbutyric acid (RS)-1-[4-((8S,11R,13S,14S,17S)-17-hydroxy-13-methyl-3-oxo-17-pentafluoroethyl-2,3,6,7,8,11,12,13,14,15,16,17-dodecahydro-1H-cyclopenta[a]phenanthren-11-yl)phenyl]ethyl ester]

Row | Structure (SMILES) | IC50 [nM]
5 | CC(OC(=O)[C@@H](NC(=O)OC(C)(C)C)C(C)C)c1ccc([C@H]2C[C@@]3(C)C(CC[C@@]3(O)C(F)(F)C(F)(F)F)C3CCC4=CC(=O)CCC4=C32)cc1 (mixture of isomers) [Example 5, (S)-2-tert-Butoxycarbonylamino-3-methylbutyric acid (RS)-1-[4-((8S,11R,-13S,14S,17S)-17-hydroxy-13-methyl-3-oxo-17-pentafluoroethyl-2,3,6,7,8,11,12,13,14,15,-16,17-dodecahydro-1H-cyclopenta[a]phenanthren-11-yl)phenyl]ethyl ester] | 0.8
6 | CC(OC(=O)[C@H](C)NC(=O)OC(C)(C)C)c1ccc([C@H]2C[C@@]3(C)C(CC[C@@]3(O)C(F)(F)C(F)(F)F)C3CCC4=CC(=O)CCC4=C32)cc1 (mixture of isomers) [Example 7, (S)-2-tert-Butoxycarbonylaminopropionic acid (RS)-1-[4-((8S,11R,13S,-14S,17S)-17-hydroxy-13-methyl-3-oxo-17-pentafluoroethyl-2,3,6,7,8,11,12,13,14,15,16,17-dodecahydro-1H-cyclopenta[a]phenanthren-11-yl)phenyl]ethyl ester] | 0.1
7 | CC(OC(=O)[C@@H](C)NC(=O)OC(C)(C)C)c1ccc([C@H]2C[C@@]3(C)[C@@H](CC[C@@]3(O)C(F)(F)C(F)(F)F)[C@@H]3CCC4=CC(=O)CCC4=C32)cc1 (mixture of isomers) [Example 6, (R)-2-tert-Butoxycarbonylaminopropionic acid (RS)-1-[4-((8S,11R,13S,-14S,17S)-17-hydroxy-13-methyl-3-oxo-17-pentafluoroethyl-2,3,6,7,8,11,12,13,14,15,16,17-dodecahydro-1H-cyclopenta[a]phenanthren-11-yl)phenyl]ethyl ester] | 0.2
